Here are results for 36 compounds from ChEMBL document CHEMBL1201862, “PubChem BioAssay data set” (2004).

Among the targets are Cytochrome P450 2D6 (Homo sapiens, UniProt P10635); Cytochrome P450 2C9 (Homo sapiens, UniProt P11712); Cytochrome P450 3A4 (Homo sapiens, UniProt P08684).
Data set [1] deals with Luciferin 4-monooxygenase (Photinus pyralis, UniProt P08659). Kind of data set: firefly luciferase enzyme inhibitors, dose response, biochemical, luminescence (AID 1891).
A short description of data set [2]: Luminescence Cell-Based Dose Confirmation HTS to Identify Inhibitors of Platelet Dense Granule Release. [Related pubchem assays: 1663 (Primary HTS), 1678 (Summary of Project)]. Type of data set: functional.
A further data set concerns the target T1, Cytochrome P450 1A2 (Homo sapiens, UniProt P05177).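 Note: PubChem cytochrome P450 panel assay, CYP1A2 panel member.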
T1 sequence (P05177 whole entry): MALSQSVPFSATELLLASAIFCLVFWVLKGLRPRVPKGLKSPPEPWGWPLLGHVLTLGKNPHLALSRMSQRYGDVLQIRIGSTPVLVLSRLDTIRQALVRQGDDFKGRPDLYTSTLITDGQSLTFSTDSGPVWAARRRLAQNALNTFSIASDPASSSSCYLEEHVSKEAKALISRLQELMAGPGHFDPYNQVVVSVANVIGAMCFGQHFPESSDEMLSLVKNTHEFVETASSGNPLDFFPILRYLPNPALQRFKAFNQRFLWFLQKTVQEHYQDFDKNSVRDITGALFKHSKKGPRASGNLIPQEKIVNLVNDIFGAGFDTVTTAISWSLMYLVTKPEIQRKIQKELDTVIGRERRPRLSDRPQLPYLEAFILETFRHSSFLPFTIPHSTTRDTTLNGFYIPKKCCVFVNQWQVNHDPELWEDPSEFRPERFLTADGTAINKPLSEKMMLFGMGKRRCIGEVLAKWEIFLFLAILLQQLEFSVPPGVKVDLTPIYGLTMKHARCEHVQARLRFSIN

The next data set has as its target Cytochrome P450 2C19 (Homo sapiens, UniProt P33261). Kind of data set: Cytochrome panel assay with activity outcomes. Panel member name: p450-cyp2c19 Compounds with AC50 equal or less than 10 uM are considered active. Type of data set: functional.
A short description of a further data set: cells. Type of data set: functional.
The nature of data set [3]: Luminescence Cell-Based Dose Confirmation HTS to Identify Activators of 5'UTR Stem-Loop Driven Alpha-Synuclein mRNA Translation in H4 Neuroglioblastoma Cells. [Related pubchem assays: 1829 (Project Summary), 1814 (Primary HTS)]. Type of data set: functional.
A short description of data set [4]: Luminescence Cell-Based Dose Response HTS to Identify Activators of Luciferase Translation or Activity in H4 […] Cells. [Related pubchem assays: 1829 (Project Summary), 1814 (Primary HTS)]. The class given is functional.
In the next data set the test system is H4. Kind of data set: Luminescence Cell-Based Dose Response HTS to Identify Activators of 5'UTR Stem-Loop Driven Prion Protein mRNA Translation in H4 Neuroglioblastoma Cells. [Related pubchem assays: 1829 (Project Summary), 1814 (Primary HTS)]. The class given is functional. Particulars: Homo sapiens.
A short description of data set [5]: Luminescence Cell-Based Dose Retest to Confirm Inhibitors of Cancer Stem Cells. [Related pubchem assays (depositor defined):AID2717, AID2721]. The class given is functional. Particulars: Homo sapiens.
Data set [6] has as its target T2, RNA-binding protein pos-1 (Caenorhabditis elegans, UniProt G5EF15).
T2 sequence (G5EF15 whole entry): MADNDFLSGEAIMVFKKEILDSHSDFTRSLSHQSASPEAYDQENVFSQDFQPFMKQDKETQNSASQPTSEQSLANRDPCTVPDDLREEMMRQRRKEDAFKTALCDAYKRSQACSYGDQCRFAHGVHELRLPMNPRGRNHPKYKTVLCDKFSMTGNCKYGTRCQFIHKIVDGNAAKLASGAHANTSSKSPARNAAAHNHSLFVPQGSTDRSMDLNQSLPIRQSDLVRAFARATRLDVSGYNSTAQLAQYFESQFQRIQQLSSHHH
As to the kind of experiment: inhibitors of POS-1/mex-3 RNA binding, dose response, biochemical, fluorescence polarization (AID 1964).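 Note: purified POS-1 fused to maltose binding protein made in E. coli; potency of compounds blocking POS-1 binding to fluorescent RNA.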

The target of data set [7] is T3, Zinc finger protein mex-5 (Caenorhabditis elegans, UniProt Q9XUB2).
T3 sequence (Q9XUB2 whole entry): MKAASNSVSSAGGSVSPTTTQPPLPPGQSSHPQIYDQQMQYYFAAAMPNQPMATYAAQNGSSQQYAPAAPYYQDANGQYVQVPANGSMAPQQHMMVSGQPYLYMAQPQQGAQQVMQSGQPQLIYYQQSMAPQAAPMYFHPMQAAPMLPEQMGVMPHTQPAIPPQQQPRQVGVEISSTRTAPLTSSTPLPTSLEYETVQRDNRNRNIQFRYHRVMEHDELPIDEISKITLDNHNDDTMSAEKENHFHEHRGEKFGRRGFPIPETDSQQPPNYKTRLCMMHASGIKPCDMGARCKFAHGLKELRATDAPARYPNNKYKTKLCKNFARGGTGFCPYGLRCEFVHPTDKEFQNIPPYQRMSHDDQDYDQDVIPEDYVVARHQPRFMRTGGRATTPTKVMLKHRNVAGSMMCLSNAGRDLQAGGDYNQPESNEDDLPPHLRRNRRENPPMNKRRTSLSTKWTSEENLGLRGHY
As to the kind of experiment: MEX-5/TCR-2 RNA interaction inhibitors, dose response, biochemical, C. elegans, fluorescence polarization (AID 1960).

A short description of data set [8]: inhibitors of firefly luciferase expression or activity, dose response, H4 neuroglioma cells, luminescence (AID 1990). The class given is functional, cell-based.
Data set [9] can be described thus: Luminescence Cell-Based Dose Response HTS to Identify Inhibitors of 5'UTR Stem-Loop Driven Prion Protein mRNA Translation in H4 Neuroglioblastoma Cells. [Related pubchem assays: 1827 (Project Summary), 1813 (Primary HTS)]. Type of data set: functional.
Data set [10] in a line: inhibitors of SNCA 5'UTR-driven reporter translation, confirmation, H4 neuroglioma cells, luminescence (AID 1988). Type of data set: functional, cell-based.
The nature of data set [11]: Shn3 3'UTR reporter inhibitors, dose response, cell-based, Clone20 osteoblasts, firefly luciferase, cherry-picked (AID 624132).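 Note: firefly luciferase luminescence from reporter carrying the Shn3 3'UTR in osteoblasts.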 Type of data set: functional.
The nature of data set [12]: control 3'UTR Renilla luciferase suppression, dose response, counter-screen for Shn3 inhibitor project, cell-based, Clone20-Shn3RL, cherry-picked (AID 624133). Type of data set: functional.
The target in a further data set is Paired box protein Pax-8 (Homo sapiens, UniProt Q06710). Kind of data set: inhibitors of PAX8-driven TPO luciferase reporter, dose response, RMG-I cells, cherry-pick (AID 687027).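 Note: luciferase reporter driven by Pax8 target thyroperoxidase promoter measured by SteadyGlo luminescence.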 Type of data set: functional, cell-based.
Chain of Paired box protein Pax-8 (Q06710 whole entry): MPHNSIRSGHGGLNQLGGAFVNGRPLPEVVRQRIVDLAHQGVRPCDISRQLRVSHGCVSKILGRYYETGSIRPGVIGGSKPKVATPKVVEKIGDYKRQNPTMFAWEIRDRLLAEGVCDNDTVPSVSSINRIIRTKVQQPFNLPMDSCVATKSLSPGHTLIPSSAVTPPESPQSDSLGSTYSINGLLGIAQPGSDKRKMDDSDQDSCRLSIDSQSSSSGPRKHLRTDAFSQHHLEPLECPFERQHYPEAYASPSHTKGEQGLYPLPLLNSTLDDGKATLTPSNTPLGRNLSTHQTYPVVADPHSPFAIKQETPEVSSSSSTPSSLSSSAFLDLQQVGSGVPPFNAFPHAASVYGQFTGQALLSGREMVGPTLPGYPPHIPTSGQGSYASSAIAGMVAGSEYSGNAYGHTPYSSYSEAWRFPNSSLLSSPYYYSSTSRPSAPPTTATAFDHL

Activity calls are given as the source filed them. Some results are limits rather than exact numbers.

Chain of Cytochrome P450 2C9 (P11712 whole entry): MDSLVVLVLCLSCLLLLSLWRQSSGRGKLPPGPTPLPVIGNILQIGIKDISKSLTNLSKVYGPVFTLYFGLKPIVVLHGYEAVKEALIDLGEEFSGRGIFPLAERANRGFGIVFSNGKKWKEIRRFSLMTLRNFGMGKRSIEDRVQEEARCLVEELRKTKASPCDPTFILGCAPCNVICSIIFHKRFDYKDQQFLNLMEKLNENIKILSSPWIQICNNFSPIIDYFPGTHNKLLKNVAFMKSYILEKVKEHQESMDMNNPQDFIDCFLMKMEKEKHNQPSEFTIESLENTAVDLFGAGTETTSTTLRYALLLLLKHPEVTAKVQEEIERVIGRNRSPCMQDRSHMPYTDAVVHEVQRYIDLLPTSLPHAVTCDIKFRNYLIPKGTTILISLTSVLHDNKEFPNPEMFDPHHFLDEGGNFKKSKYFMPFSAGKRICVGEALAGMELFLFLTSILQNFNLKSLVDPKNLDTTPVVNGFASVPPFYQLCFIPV
Chain of Cytochrome P450 2C19 (P33261 whole entry): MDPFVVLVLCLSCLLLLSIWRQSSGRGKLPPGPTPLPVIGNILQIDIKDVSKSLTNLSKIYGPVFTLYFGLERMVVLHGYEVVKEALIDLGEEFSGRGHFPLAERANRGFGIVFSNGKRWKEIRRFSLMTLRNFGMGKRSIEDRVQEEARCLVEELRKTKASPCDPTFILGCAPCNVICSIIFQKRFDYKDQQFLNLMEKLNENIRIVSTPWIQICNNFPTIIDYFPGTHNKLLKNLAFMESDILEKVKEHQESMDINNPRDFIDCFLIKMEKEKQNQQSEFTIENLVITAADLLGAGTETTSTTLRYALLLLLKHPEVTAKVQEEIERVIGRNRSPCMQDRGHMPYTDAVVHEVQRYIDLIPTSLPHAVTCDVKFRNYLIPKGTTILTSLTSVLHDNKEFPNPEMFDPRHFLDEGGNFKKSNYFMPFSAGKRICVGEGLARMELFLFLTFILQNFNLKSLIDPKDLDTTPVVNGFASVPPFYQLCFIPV
Chain of Luciferin 4-monooxygenase (P08659 whole entry): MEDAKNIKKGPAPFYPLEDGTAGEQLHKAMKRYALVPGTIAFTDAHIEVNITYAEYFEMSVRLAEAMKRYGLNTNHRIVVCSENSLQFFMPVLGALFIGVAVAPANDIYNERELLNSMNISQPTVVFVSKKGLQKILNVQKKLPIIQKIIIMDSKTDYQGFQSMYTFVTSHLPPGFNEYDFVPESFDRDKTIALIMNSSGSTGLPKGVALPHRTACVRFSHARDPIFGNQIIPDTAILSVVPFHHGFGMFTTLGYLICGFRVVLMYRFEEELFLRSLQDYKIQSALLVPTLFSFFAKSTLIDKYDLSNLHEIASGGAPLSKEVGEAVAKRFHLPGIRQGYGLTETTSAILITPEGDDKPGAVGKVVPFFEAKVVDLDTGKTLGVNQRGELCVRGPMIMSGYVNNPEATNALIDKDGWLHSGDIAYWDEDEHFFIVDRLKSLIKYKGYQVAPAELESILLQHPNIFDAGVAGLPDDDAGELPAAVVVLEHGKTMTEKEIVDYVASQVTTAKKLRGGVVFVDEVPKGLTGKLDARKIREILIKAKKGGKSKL
Chain of Cytochrome P450 2D6 (P10635 whole entry): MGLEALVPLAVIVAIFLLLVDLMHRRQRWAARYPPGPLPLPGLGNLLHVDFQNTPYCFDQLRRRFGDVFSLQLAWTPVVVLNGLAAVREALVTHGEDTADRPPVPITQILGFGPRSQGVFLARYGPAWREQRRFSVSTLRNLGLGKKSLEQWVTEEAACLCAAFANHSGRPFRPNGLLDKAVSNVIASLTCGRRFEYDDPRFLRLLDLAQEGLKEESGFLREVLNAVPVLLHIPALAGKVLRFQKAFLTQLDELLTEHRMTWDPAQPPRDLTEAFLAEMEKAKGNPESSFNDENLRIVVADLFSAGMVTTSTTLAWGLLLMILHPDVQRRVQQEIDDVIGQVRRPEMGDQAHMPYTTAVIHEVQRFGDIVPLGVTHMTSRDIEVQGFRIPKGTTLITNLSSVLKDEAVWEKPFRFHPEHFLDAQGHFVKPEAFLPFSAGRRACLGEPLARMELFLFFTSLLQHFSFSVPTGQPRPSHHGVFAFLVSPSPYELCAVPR
Chain of Cytochrome P450 3A4 (P08684 whole entry): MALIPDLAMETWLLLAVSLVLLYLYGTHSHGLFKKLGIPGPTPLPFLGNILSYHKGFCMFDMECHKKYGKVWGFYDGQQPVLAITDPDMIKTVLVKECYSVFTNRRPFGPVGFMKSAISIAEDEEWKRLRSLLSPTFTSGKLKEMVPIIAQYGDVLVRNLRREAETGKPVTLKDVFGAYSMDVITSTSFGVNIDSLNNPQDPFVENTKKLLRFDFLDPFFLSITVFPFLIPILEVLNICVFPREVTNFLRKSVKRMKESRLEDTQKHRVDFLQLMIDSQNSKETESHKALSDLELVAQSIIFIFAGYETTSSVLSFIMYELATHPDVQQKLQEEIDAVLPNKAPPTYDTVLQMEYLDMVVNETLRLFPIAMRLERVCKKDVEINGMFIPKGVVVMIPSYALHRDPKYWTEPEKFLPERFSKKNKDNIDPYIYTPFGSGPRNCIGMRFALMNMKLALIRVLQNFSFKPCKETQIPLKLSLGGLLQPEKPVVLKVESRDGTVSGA

`COc1ccc(C(=O)Nc2ccccc2C(=O)Nc2cccnc2)cc1`: the EC50 in [1] was 1.61 µM (active); in [2], 6.59 µM (active).
The corresponding values for `COc1ccc(S(=O)(=O)N2CCN(Cc3ccc4c(c3)OCO4)CC2)c2ccccc12` are > 112 µM (not active) and > 112 µM (not active).
Consider `CCC(NC(=O)C1(C)CC1(Br)Br)c1ccc(C)cc1` (stereo unspecified), for which the results for the AC50 at Cytochrome P450 2D6 and at Cytochrome P450 1A2 were 7.94 µM (inconclusive) and 20 µM (inconclusive), respectively.
As for `COC(=O)[C@@]1(Cc2ccc(F)cc2)[C@H]2c3cc(C(=O)N4CCCC4)n(Cc4cccc5ccccc45)c3C[C@H]2CN1C(=O)c1ccccc1`, the AC50 at Cytochrome P450 2C19 (read-out: AC50) was 7.94 µM (inconclusive); on Cytochrome P450 1A2 it was 15.8 µM (inconclusive).
In the case of `Cc1ccnc(NC(=O)CCc2c[nH]c3ccccc23)c1`, in “cells”, the IC50 was 21.6 µM (active).
Regarding `CC(=O)N1CCC2(CCN(Cc3cc(C(F)(F)F)cc(C(F)(F)F)c3)CC2)CC1`, the half-maximal activity concentration (AC50) at Cytochrome P450 1A2 was 15.8 µM (inconclusive).
Take `O=C(N[C@@H](c1ccccc1)[C@@H]1C[C@H]1C(=O)NCc1ccccn1)OCc1ccccc1`: the AC50 at Cytochrome P450 1A2 is 10 µM (inconclusive); at Cytochrome P450 2C9, 20 µM (inconclusive).
`COc1ccc(C(=O)/C=C2/C(=O)Nc3ccccc32)cc1`: the EC50 was 18.1 µM (active) in data set [3], > 120 µM (not active) in [4] and 17.1 µM (active) in the data set on H4. The AC50 in data set [5] is 4.39 µM (active).
With `CCOC(=O)c1cc(-c2ccccc2)sc1NC(=S)Nc1cc(C)ccn1`, the half-maximal effective concentration (EC50) in data set [6] was 11.1 µM (inconclusive); in [7], 0.77 µM (inconclusive). In addition, the AC50 is 6.31 µM (inconclusive) at Cytochrome P450 2C19 (read-out: AC50), 3.55 µM (inconclusive) at Cytochrome P450 1A2 and 5.62 µM (inconclusive) on Cytochrome P450 2C9.
In the case of `CCOc1ccc(-c2nc3ccccc3c(=O)o2)cc1`, in the data set “cells”, the IC50 is 7.01 µM (active).
Take `O=C(Nc1ccccc1)OC[C@H](CN1CCCCC1)OC(=O)Nc1ccccc1`: the AC50 at Cytochrome P450 2C19 (read-out: AC50) was 5.01 µM (inconclusive); on Cytochrome P450 1A2, 12.6 µM (inconclusive).
Take `O=c1c2ccccc2c2ccccc2c(=O)n1-c1cc2c3ccccc3ccc2c2ccccc12`: the AC50 on Cytochrome P450 1A2 was 6.31 µM (inconclusive).
On the same count and under the same terms, then `O=C(CSCc1ccccc1)Nc1cccc(C(=O)Nc2ccccc2C(=O)O)c1`, with 15.8 µM (inconclusive).
With `C=CCNc1nc(N)c([N+](=O)[O-])c(N2CCCCCC2)n1`, the EC50 is > 120 µM (not active) in data set [8], > 120 µM (not active) in data set [9] and 26.7 µM (active) in data set [10].
On to `COC(=O)c1ccc(/C=C/c2c(-c3ccc(OC)cc3)oc3ccccc23)cc1`, for which the AC50 in [5] is 2.47 µM (active).
Consider `N=C(NOC(=O)c1ccccc1Cl)c1cccnc1`, for which the EC50 in data set [1] is 23.6 µM (active); in data set [2], > 112 µM (not active).
The like results for `CC(=O)Nc1ccc(S(=O)(=O)N2CCC(C(=O)NCc3ccco3)CC2)cc1` were, in that order, > 112 µM (not active) and > 112 µM (not active).
With `O=C(Nc1c(F)cc(F)cc1Br)c1cc(-c2ccccc2)on1`, the IC50 in “cells” is 4 µM (active).
As for `O=C1NCCCC1C(=O)Nc1ccccc1C(F)(F)F` (stereo unspecified), on Cytochrome P450 1A2, the AC50 was 39.8 µM (inconclusive).
Regarding `Cc1nc2ccccc2nc(C)c1=NO`, the AC50 result is “inconclusive” at Cytochrome P450 2C19 and 17.8 µM (inconclusive) at Cytochrome P450 1A2.
Take `Cc1cccc(NC(=O)CCCNC(=O)c2ccc(Cl)cc2)n1`: the values for the EC50 in [1] and in data set [2] were > 112 µM (not active) and 16 µM (active), respectively.
As to `CNC(=O)COC(=O)c1ccc(-c2nc3ccccc3s2)s1`, the figures for the EC50 (in [4]; in the data set with H4) were 0.764 µM (active) and 56.3 µM (active), respectively. Further, the IC50 in the data set “cells” was 5.82 µM (active).
For the compound `CCc1ccc2c(c1)cc(CN(C(S)=Nc1cccc(C)c1)C1CC1)c1nnnn12`, the AC50 on Cytochrome P450 1A2 was 12.6 µM (inconclusive); at Cytochrome P450 2C9, 2.82 µM (inconclusive).
With `OC(CSc1ccccc1Cl)CN1CCN(c2ccc(F)cc2)CC1` (stereo unspecified), the EC50 in data set [8], in data set [9] and in data set [10] was > 120 µM (not active) throughout.
In the case of `O=C(c1cnc2ccc3ccccc3c2c1)c1cc(F)ccc1O`, in data set [5], the AC50 was 0.562 µM (active).
As to `Cc1ccccc1NC(=O)c1cc(S(=O)(=O)N2CCOCC2)cn1C`, the EC50 in data set [1] and in [2] was > 112 µM (not active) throughout.
Take `COc1cccc(OCCCOc2ccccc2C(C)C)c1`: the AC50 at Cytochrome P450 1A2 is 22.4 µM (inconclusive); at Cytochrome P450 3A4, 0.0178 µM (inconclusive); at Cytochrome P450 2C9, 25.1 µM (inconclusive).
Take `c1ccc(CN2CC[C@@H](CNc3ncnc4ccccc34)C2)cc1`: the AC50 at Cytochrome P450 1A2 is 6.31 µM (inconclusive).
As to `CC(c1ccccc1)N1C(=O)/C(=C/c2ccncc2)SC1=S` (stereo unspecified), the AC50 in [5] was 19 µM (active).
Take `O=C(CCc1ccccc1)NCc1cccnc1`: the AC50 on Cytochrome P450 1A2 is 31.6 µM (inconclusive); at Cytochrome P450 2C9, 1 µM (inconclusive).
`Cc1ccnc(N/C=C(/NC(=O)c2ccccc2)C(=O)N/N=C\c2ccc(F)cc2)n1`: the AC50 in data set [11] is > 70 µM (inactive); in data set [12] it was 26.8 µM (active).
Turning to `C[C@@H]1CCCCO[C@H](CN(C)Cc2ccc(C(F)(F)F)cc2)[C@H](C)CN([C@@H](C)CO)C(=O)c2cc(NC(=O)Nc3ccc(F)cc3)ccc2O1`, the AC50 at Paired box protein Pax-8 is 8.21 µM (active).
Regarding `C[C@@H]1CN([C@@H](C)CO)C(=O)Cc2cc(NC(=O)c3ccncc3)ccc2O[C@@H]1CN(C)Cc1ccc(-c2ccccc2)cc1`, the AC50 at Paired box protein Pax-8 was 22.3 µM (active).
As to `CC(C)c1ccc(/C=N/NC(=O)c2ccccn2)cc1`, the AC50 in [5] is 19.5 µM (active). In addition, the IC50 in “cells” is 6.08 µM (active).
`N[C@H](C(=O)O)[C@H](OCc1ccccc1)C(=O)O`: the AC50 on Cytochrome P450 1A2 is 31.6 µM (inconclusive).
On to `c1ccc2[nH]c(-c3cscn3)nc2c1` [THIABENDAZOLE], for which the EC50 in data set [3] was 14.3 µM (active); in [4], 18.7 µM (active); in the data set with H4, 23.7 µM (active). The AC50 at Cytochrome P450 2C19 (read-out: AC50) was 7.94 µM (inconclusive); on Cytochrome P450 2D6, 10 µM (inconclusive); at Cytochrome P450 1A2, 0.126 µM (active).
